Drawing on ChEMBL document CHEMBL2163249, “Exploration of natural compounds as sources of new bifunctional scaffolds targeting cholinesterases and beta amyloid aggregation: the case of chelerythrine” (Bioorg Med Chem, 2012), this text covers inhibition and IC50 for twelve molecules.

Bounds are passed on as bounds.

In general, inhibition refers to the change of the read-out against control, counted positive when it falls. As a reminder, the IC50 is the concentration needed to halve the response being measured.

Cholinesterase (Equus caballus, UniProt P81908), sequence (P81908 whole entry): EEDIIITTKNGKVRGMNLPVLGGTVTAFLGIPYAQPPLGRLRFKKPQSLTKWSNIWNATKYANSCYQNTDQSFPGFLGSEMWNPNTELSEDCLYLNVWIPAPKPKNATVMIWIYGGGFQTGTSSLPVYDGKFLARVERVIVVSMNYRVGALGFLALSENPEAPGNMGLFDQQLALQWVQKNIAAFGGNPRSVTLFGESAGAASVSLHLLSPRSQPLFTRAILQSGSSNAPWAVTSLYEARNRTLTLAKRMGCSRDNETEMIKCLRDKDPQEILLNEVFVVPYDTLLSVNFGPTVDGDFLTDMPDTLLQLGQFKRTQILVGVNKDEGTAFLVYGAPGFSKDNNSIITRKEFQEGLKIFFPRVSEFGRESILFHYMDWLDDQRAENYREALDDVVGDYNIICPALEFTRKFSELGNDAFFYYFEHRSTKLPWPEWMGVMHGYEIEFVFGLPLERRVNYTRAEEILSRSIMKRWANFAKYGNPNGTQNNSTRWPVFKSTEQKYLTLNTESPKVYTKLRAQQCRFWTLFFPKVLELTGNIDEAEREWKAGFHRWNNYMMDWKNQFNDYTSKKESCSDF
Acetylcholinesterase (Electrophorus electricus), sequence (O42275 24-633 limits assumed): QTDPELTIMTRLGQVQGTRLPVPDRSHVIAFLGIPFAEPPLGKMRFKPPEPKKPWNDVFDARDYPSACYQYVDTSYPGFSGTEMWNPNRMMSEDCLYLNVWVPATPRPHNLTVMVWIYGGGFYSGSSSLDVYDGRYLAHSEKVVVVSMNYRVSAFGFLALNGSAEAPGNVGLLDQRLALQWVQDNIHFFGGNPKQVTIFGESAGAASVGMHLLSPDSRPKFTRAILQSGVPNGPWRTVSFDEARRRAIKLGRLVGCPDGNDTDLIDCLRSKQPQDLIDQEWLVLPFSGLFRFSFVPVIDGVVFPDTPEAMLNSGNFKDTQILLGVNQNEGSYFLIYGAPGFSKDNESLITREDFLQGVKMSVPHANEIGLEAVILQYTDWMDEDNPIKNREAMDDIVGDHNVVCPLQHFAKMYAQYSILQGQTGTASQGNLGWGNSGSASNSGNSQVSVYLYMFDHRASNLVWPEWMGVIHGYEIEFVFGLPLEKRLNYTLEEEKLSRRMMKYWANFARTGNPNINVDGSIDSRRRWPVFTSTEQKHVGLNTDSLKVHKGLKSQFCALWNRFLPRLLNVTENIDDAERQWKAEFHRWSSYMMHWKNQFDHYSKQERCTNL

One assay has as its target Acetylcholinesterase (Electrophorus electricus) (UniProt O42275). As to conditions: at 2 mg/mL; call rule not given here.
`Cc1c([C@H](C)[C@@H]2NC[C@@H](C)C[C@H]2O)ccc2c1C[C@H]1[C@H]2CC=C2C[C@@H](O)CC[C@@]21C` [VERATRAMINE] showed an inhibition of 24.5%.

The molecule `COc1cc2c(cc1OC)-c1cc3ccc(OC)c(OC)c3c[n+]1CC2.O.[Cl-]` [PALMATINE CHLORIDE HYDRATE] returned an inhibition of 72.6%.

With `C[C@@H]1OC(=O)[C@H]2C[C@H]3CCCC[C@@H]3[C@@H](/C=C/[C@H]3CCC[C@H](C)N3C)[C@@H]12` [HIMBACINE], the inhibition worked out at 57%.

With `COc1cc2c3cc1Oc1c(OO)c(OC)cc4c1[C@H](Cc1ccc(cc1)Oc1cc(ccc1O)C[C@H]3N(C)CC2)N(C)CC4.O=S(=O)(O)O` [OXYACANTHINE SULFATE], the inhibition is 0.62%.

Regarding `CCC1=C[C@@H]2CN3CCc4c([nH]c5ccccc45)[C@@](C(=O)OC)(C2)[C@@H]13` [CATHARANTHINE BASE], the inhibition turned out to be 5.28%.

`COC(=O)[C@H]1[C@H]2C[C@H]3c4[nH]c5ccccc5c4CCN3C[C@H]2CC[C@@H]1O.Cl` [RAUWOLSCINE HYDROCHLORIDE] came in with an inhibition of 12.4%.

As to `Cl.Cl.c1ccc2c3c([nH]c2c1)[C@H]1[C@H]2CC[C@H]([C@@H]4CCCN[C@@H]42)N1CC3`, the inhibition was determined as 20.5%.

The next assay concerns the target Cholinesterase (Equus caballus, UniProt P81908). The assay is described as follows: Inhibition of horse BChE by Ellman's method.
Details: not given
A general note: Ellman's reagent forms a yellow product with free thiols.
Consider `COc1cc2c(cc1OC)-c1cc3ccc(OC)c(OC)c3c[n+]1CC2.O.[Cl-]` [PALMATINE CHLORIDE HYDRATE], for which the IC50 result is listed as “Not Active”.

As for `C[C@@H]1OC(=O)[C@H]2C[C@H]3CCCC[C@@H]3[C@@H](/C=C/[C@H]3CCC[C@H](C)N3C)[C@@H]12` [HIMBACINE], the IC50 result is listed as “Not Active”.

The assay is the same for the next values; noted with them: read-out: IC50.
In the case of `Cc1c([C@H](C)[C@@H]2NC[C@@H](C)C[C@H]2O)ccc2c1C[C@H]1[C@H]2CC=C2C[C@@H](O)CC[C@@]21C` [VERATRAMINE], the IC50 amounted to 10.8 µM.

For `C[C@@H]1CC[C@H]2[C@H](C)[C@H]3CC[C@@]4(O)[C@@H]5CC(=O)[C@H]6CC(=O)CC[C@]6(C)[C@H]5C[C@H]4[C@@H]3CN2C1` [SEVEDINDIONE], the 50% inhibitory concentration (IC50) turned out to be 3.68 µM.

Turning to `CC[C@H]1CN2CCc3c([nH]c4ccccc34)[C@H]2C[C@@H]1/C(=C\OC)C(=O)OC` [HIRSUTINE], the IC50 was 4.97 µM.

Regarding `O[C@H]1CCN2Cc3ccccc3N=C12` [VASICINE], the 50% inhibitory concentration (IC50) worked out at 2.53 µM.

Take `COc1cc2c3cc1Oc1c(OO)c(OC)cc4c1[C@H](Cc1ccc(cc1)Oc1cc(ccc1O)C[C@H]3N(C)CC2)N(C)CC4.O=S(=O)(O)O` [OXYACANTHINE SULFATE]: the half-maximal inhibitory concentration (IC50) stood at 4.1 µM.

Consider `CCC1=C[C@@H]2CN3CCc4c([nH]c5ccccc45)[C@@](C(=O)OC)(C2)[C@@H]13` [CATHARANTHINE BASE], for which the IC50 was found to be 5.17 µM.

Turning to `OC1c2ccccc2N=C2CCCN21` (configuration not stated) [PEGANOLE], the IC50 came to 11.4 µM.

In the case of `COC(=O)[C@H]1[C@H]2C[C@H]3c4[nH]c5ccccc5c4CCN3C[C@H]2CC[C@@H]1O.Cl` [RAUWOLSCINE HYDROCHLORIDE], the concentration for half-maximal inhibition (IC50) was found to be 8.38 µM.

As for `Cl.Cl.c1ccc2c3c([nH]c2c1)[C@H]1[C@H]2CC[C@H]([C@@H]4CCCN[C@@H]42)N1CC3`, the IC50 came out at 10.6 µM.

The target of another assay is Acetylcholinesterase (Electrophorus electricus, UniProt O42275). The assay is described as follows: Inhibition of electric eel AChE by Ellman's method.
Acetylcholinesterase (Electrophorus electricus, UniProt O42275), sequence (O42275 whole entry): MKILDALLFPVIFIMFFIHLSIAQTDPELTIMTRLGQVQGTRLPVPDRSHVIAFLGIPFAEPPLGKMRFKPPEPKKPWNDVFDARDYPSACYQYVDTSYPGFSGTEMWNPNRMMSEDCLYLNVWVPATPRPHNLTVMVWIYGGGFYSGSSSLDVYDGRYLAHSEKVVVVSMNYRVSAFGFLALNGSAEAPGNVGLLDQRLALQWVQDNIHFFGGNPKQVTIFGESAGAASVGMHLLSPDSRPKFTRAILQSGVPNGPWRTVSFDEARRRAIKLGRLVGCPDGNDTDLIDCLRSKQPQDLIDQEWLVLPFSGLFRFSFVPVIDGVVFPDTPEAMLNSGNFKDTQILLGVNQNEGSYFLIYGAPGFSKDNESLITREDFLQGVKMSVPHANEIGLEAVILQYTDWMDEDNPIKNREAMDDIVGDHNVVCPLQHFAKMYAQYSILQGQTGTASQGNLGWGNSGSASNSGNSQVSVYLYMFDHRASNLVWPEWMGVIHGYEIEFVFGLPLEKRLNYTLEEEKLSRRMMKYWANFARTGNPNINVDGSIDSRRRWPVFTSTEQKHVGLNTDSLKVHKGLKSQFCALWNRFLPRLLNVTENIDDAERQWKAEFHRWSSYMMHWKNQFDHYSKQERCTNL
Details: not given
`Cc1c([C@H](C)[C@@H]2NC[C@@H](C)C[C@H]2O)ccc2c1C[C@H]1[C@H]2CC=C2C[C@@H](O)CC[C@@]21C` [VERATRAMINE]: the IC50 entry is listed as “Not Active”.

Regarding `C[C@@H]1CC[C@H]2[C@H](C)[C@H]3CC[C@@]4(O)[C@@H]5CC(=O)[C@H]6CC(=O)CC[C@]6(C)[C@H]5C[C@H]4[C@@H]3CN2C1` [SEVEDINDIONE], the IC50 entry is listed as “Not Active”.

Take `CC[C@H]1CN2CCc3c([nH]c4ccccc34)[C@H]2C[C@@H]1/C(=C\OC)C(=O)OC` [HIRSUTINE]: the concentration for half-maximal inhibition (IC50) entry is “Not Active”.

Regarding `O[C@H]1CCN2Cc3ccccc3N=C12` [VASICINE], the half-maximal inhibitory concentration (IC50) result is listed as “Not Active”.

Take `COc1cc2c3cc1Oc1c(OO)c(OC)cc4c1[C@H](Cc1ccc(cc1)Oc1cc(ccc1O)C[C@H]3N(C)CC2)N(C)CC4.O=S(=O)(O)O` [OXYACANTHINE SULFATE]: the half-maximal inhibitory concentration (IC50) result is on record as “Not Active”.

As for `CCC1=C[C@@H]2CN3CCc4c([nH]c5ccccc45)[C@@](C(=O)OC)(C2)[C@@H]13` [CATHARANTHINE BASE], the IC50 entry is given as “Not Active”.

On to `OC1c2ccccc2N=C2CCCN21` (configuration not stated) [PEGANOLE], for which the IC50 result is listed as “Not Active”.

In the case of `COC(=O)[C@H]1[C@H]2C[C@H]3c4[nH]c5ccccc5c4CCN3C[C@H]2CC[C@@H]1O.Cl` [RAUWOLSCINE HYDROCHLORIDE], the IC50 entry is “Not Active”.

As to `Cl.Cl.c1ccc2c3c([nH]c2c1)[C@H]1[C@H]2CC[C@H]([C@@H]4CCCN[C@@H]42)N1CC3`, the IC50 entry is listed as “Not Active”.

The assay is the same for the next values; noted with them: read-out: IC50.
With `C[C@@H]1OC(=O)[C@H]2C[C@H]3CCCC[C@@H]3[C@@H](/C=C/[C@H]3CCC[C@H](C)N3C)[C@@H]12` [HIMBACINE], the IC50 came out at 22.7 µM.

Test system in the next assay: not listed separately
Put plainly: Inhibition of HFIP-induced amyloid beta (1 to 40) aggregation after 45 mins by thioflavin T fluorescence method.
Details: not given
Regarding `COc1cc2c(cc1OC)-c1cc3ccc(OC)c(OC)c3c[n+]1CC2.O.[Cl-]` [PALMATINE CHLORIDE HYDRATE], the midpoint of inhibition, the IC50, lay at 92.2 µM.

Test system in the next assay: not listed separately
The assay is described as follows: Inhibition of amyloid beta (1 to 40) aggregation assessed as induction of disaggregation at 100 uM treated 4 days after formation of aggregates by thioflavin T fluorescence method.
Details: not given
`CC(C)=CCC[C@]1(C)[C@@H](CC=C(C)C)C[C@]2(CC=C(C)C)C(=O)C(CC=C(C)C)=C(O)[C@@]1(C(=O)C(C)C)C2=O`: the inhibition came out at 20%.

For the next assay, the target named is Cholinesterase (Homo sapiens, UniProt P06276). The assay is described as follows: Inhibition of human BChE by Ellman's method.
Cholinesterase (Homo sapiens, UniProt P06276), sequence (P06276 whole entry): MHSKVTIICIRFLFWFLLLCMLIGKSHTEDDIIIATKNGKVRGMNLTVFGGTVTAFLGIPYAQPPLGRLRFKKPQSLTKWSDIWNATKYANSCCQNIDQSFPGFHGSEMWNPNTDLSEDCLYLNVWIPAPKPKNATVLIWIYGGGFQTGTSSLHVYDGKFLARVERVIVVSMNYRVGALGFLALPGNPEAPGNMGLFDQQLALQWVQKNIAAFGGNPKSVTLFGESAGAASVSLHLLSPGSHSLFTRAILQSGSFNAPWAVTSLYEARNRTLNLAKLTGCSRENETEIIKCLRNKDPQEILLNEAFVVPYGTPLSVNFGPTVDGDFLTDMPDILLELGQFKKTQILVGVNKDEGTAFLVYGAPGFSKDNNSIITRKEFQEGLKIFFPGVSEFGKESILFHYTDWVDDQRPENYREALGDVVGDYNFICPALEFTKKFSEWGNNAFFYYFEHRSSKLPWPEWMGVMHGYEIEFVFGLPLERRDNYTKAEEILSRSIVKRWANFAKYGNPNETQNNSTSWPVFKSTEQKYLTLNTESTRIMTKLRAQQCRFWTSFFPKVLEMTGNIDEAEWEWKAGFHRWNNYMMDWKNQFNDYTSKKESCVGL
Details: not given
Regarding `C[C@@H]1OC(=O)[C@H]2C[C@H]3CCCC[C@@H]3[C@@H](/C=C/[C@H]3CCC[C@H](C)N3C)[C@@H]12` [HIMBACINE], the half-inhibitory concentration (IC50) entry is reported as “Not Active”.

The same assay, now with this note: read-out: IC50.
For `Cc1c([C@H](C)[C@@H]2NC[C@@H](C)C[C@H]2O)ccc2c1C[C@H]1[C@H]2CC=C2C[C@@H](O)CC[C@@]21C` [VERATRAMINE], the concentration for half-maximal inhibition (IC50) was 19.5 µM.

With `C[C@@H]1CC[C@H]2[C@H](C)[C@H]3CC[C@@]4(O)[C@@H]5CC(=O)[C@H]6CC(=O)CC[C@]6(C)[C@H]5C[C@H]4[C@@H]3CN2C1` [SEVEDINDIONE], the 50% inhibitory concentration (IC50) was found to be 0.27 µM.

As for `CC[C@H]1CN2CCc3c([nH]c4ccccc34)[C@H]2C[C@@H]1/C(=C\OC)C(=O)OC` [HIRSUTINE], the concentration for half-maximal inhibition (IC50) came to 1.97 µM.

Regarding `O[C@H]1CCN2Cc3ccccc3N=C12` [VASICINE], the half-inhibitory concentration (IC50) turned out to be 3.13 µM.

With `COc1cc2c3cc1Oc1c(OO)c(OC)cc4c1[C@H](Cc1ccc(cc1)Oc1cc(ccc1O)C[C@H]3N(C)CC2)N(C)CC4.O=S(=O)(O)O` [OXYACANTHINE SULFATE], the IC50 stood at 1.89 µM.

Consider `CCC1=C[C@@H]2CN3CCc4c([nH]c5ccccc45)[C@@](C(=O)OC)(C2)[C@@H]13` [CATHARANTHINE BASE], for which the IC50 came to 3.17 µM.

Consider `OC1c2ccccc2N=C2CCCN21` (configuration not stated) [PEGANOLE], for which the IC50 was over 20 µM.

In the case of `COC(=O)[C@H]1[C@H]2C[C@H]3c4[nH]c5ccccc5c4CCN3C[C@H]2CC[C@@H]1O.Cl` [RAUWOLSCINE HYDROCHLORIDE], the IC50 worked out at 13.7 µM.

On to `Cl.Cl.c1ccc2c3c([nH]c2c1)[C@H]1[C@H]2CC[C@H]([C@@H]4CCCN[C@@H]42)N1CC3`, for which the 50% inhibitory concentration (IC50) was 9.01 µM.

Test system in the next assay: not listed separately
Put plainly: Inhibition of amyloid beta (1 to 40) aggregation assessed as induction of disaggregation treated 45 mins after formation of aggregates by thioflavin T fluorescence method.
Details: not given
Take `COc1cc2c(cc1OC)-c1cc3ccc(OC)c(OC)c3c[n+]1CC2.O.[Cl-]` [PALMATINE CHLORIDE HYDRATE]: the IC50 is 174 µM.

The target in another assay is Acetylcholinesterase (Homo sapiens, UniProt P22303).
Acetylcholinesterase (Homo sapiens, UniProt P22303), sequence (P22303 whole entry): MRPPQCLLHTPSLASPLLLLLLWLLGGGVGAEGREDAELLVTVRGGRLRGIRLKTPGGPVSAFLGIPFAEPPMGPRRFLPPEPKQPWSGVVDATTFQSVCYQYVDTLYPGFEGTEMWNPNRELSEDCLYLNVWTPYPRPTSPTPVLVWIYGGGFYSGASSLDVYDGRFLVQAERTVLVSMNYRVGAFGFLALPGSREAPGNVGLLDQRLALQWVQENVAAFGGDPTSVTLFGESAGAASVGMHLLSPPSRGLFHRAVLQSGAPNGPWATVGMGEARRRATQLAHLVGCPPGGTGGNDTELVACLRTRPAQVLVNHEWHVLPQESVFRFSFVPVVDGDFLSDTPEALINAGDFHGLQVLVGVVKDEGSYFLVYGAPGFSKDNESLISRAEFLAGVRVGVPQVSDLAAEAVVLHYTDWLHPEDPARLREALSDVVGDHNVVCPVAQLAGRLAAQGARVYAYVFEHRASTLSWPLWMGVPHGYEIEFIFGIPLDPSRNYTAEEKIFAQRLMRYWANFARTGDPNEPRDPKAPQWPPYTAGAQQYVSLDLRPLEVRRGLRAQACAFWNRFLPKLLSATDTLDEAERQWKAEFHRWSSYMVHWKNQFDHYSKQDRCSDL
Details: not given
For the molecule `COc1cc2c(cc1OC)-c1cc3ccc(OC)c(OC)c3c[n+]1CC2.O.[Cl-]` [PALMATINE CHLORIDE HYDRATE], the 50% inhibitory concentration (IC50) came out at 1.69 µM.

For a further assay, the target named is Cholinesterase (Equus caballus) (UniProt P81908). Conditions: at 2 mg/mL.
Cholinesterase (Equus caballus), sequence (P81908 whole entry): as the sequence (P81908 whole entry) above
Description: Inhibition of horse BChE at 2 mg/ml by Ellman's method
With `Cc1c([C@H](C)[C@@H]2NC[C@@H](C)C[C@H]2O)ccc2c1C[C@H]1[C@H]2CC=C2C[C@@H](O)CC[C@@]21C` [VERATRAMINE], the inhibition is 66.2%.

As to `C[C@@H]1CC[C@H]2[C@H](C)[C@H]3CC[C@@]4(O)[C@@H]5CC(=O)[C@H]6CC(=O)CC[C@]6(C)[C@H]5C[C@H]4[C@@H]3CN2C1` [SEVEDINDIONE], the inhibition turned out to be 17%.

Take `CC[C@H]1CN2CCc3c([nH]c4ccccc34)[C@H]2C[C@@H]1/C(=C\OC)C(=O)OC` [HIRSUTINE]: the inhibition is 87.1%.

As to `O[C@H]1CCN2Cc3ccccc3N=C12` [VASICINE], the inhibition was 85.7%.

Molecule `COc1cc2c(cc1OC)-c1cc3ccc(OC)c(OC)c3c[n+]1CC2.O.[Cl-]` [PALMATINE CHLORIDE HYDRATE] displayed an inhibition of 7.47%.

The molecule `COc1cc2c3cc1Oc1c(OO)c(OC)cc4c1[C@H](Cc1ccc(cc1)Oc1cc(ccc1O)C[C@H]3N(C)CC2)N(C)CC4.O=S(=O)(O)O` [OXYACANTHINE SULFATE] showed an inhibition of 66.3%.

Take `CCC1=C[C@@H]2CN3CCc4c([nH]c5ccccc45)[C@@](C(=O)OC)(C2)[C@@H]13` [CATHARANTHINE BASE]: the inhibition is 75.2%.

The molecule `OC1c2ccccc2N=C2CCCN21` (configuration not stated) [PEGANOLE] registered an inhibition of 65.7%.

Molecule `COC(=O)[C@H]1[C@H]2C[C@H]3c4[nH]c5ccccc5c4CCN3C[C@H]2CC[C@@H]1O.Cl` [RAUWOLSCINE HYDROCHLORIDE] displayed an inhibition of 59.1%.

Molecule `Cl.Cl.c1ccc2c3c([nH]c2c1)[C@H]1[C@H]2CC[C@H]([C@@H]4CCCN[C@@H]42)N1CC3` showed an inhibition of 48.7%.
